According to patent US4260612A, “Antiallergic nitrogen bridge-head compounds” (Chinoin Gyogyszer es Vecyeszeti Termekek Gyara Rt., priority 1977, dated 1981):

Key:
[1] = test system: allergic reactions; assay: PCA test (antiallergic activity, rats); format: in vivo; conditions: for ED50: Rattus norvegicus, iv; for ED50 / percental activity in the PCA test: rats
Description: (§1) The tests were carried out by the PCA test-method (Ovary: J. Immun. 81, 355, 1958) and the Church-test (British J. Pharm. 46, 56-66, 1972; Immunology 29, 527-534, 1975) and as comparing substance disodium chromoglycate is used. The test is carried out in rats.

[2] = test system: histamine; assay: Released histamine in vitro (antiallergic tests incl. Church-test); format: cell-based, rats; conditions: Rattus norvegicus; read-out: Released histamine in vitro, ED50
Description: as §1

[3] = test system: allergic symptoms; conditions: orally; background statement; cited from earlier work

Row | Structure (SMILES) | ED50 [1] [µmol/kg] | percental activity in the PCA test ([1]; single i.v. dose of 10 μmole/kg) [%] | percental activity in the PCA test ([1]; single i.v. dose of 320 μmole/kg) [%] | IC50 [2] [µM] | route dependence / oral activity ([1]; oral versus i.v., words) | oral activity of antiasthmatic agent [3]
1 | CC1CC=C(Nc2ccccc2)c2ncc(C(=O)O)c(=O)n21 (stereo not shown) [Example 1, 9-(phenyl-amino)-6-methyl-4-oxo-6,7-dihydro-4H-pyrido[1,2-a]pyrimidine-3-carboxylic acid] | 1.3 | 60 | 100 | 12.3 | – | –
2 | O=C(O)c1cc(=O)c2c(OCC(O)COc3cccc4oc(C(=O)O)cc(=O)c34)cccc2o1 [disodium chromoglycolate, reference compound] | 1 | – | – | – | effective only when administered intravenously | not active orally
